Reference: paper PMC11249646, “Small-Molecule Disruptors of the Interaction between Calcium- and Integrin-Binding Protein 1 and Integrin αIIbβ3 as Novel Antiplatelet Agents” (ACS Pharmacology & Translational Science, 2024)
Where two headings read alike, the source gives them in different places. Blank lines part the entries; values can stand above or below the compound they belong to.

Experiments:
[1] = molecular target: T1, CIB1 and αIIb interaction (CIB1-GST : F-αIIb peptide) (Homo sapiens, UniProt Q99828); assay: FP assay, 1536-well qHTS format (primary and confirmatory screen); assay type: binding; settings: for Confirm? (confirmatory screen): YES/NO; for Curve Class (confirmatory screen): qHTS curve class; for Curve Class (confirmatory screen) / Curve Class: negative sign = inhibitory curve; for Efficacy (%): negative = inhibition
T1 construct: made in house; host or cells: BL-21 plus RIL cells (E. coli)
T1 sequence (Q99828 1-191): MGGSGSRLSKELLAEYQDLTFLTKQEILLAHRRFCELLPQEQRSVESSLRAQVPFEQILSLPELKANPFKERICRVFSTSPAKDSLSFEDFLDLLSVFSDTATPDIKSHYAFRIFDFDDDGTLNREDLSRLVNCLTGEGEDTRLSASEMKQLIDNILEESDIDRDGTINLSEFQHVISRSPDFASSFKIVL

[2] = molecular target: T2, GST-CIB1 : F-scrambled peptide (Homo sapiens, UniProt Q99828); assay: FP scrambled-peptide counter screen, 1536-well format; assay type: binding; settings: counterscreen; for Curve Class (counterscreen): qHTS curve class, negative sign = inhibitory curve; for IC50: read-out: IC50 [μM] (counterscreen); for Confirm? (counterscreen): YES/NO
T2 construct: made in house; host or cells: BL-21 plus RIL cells (E. coli)
T2 sequence (Q99828 1-191): T1 sequence (Q99828 1-191)

[3] = confirmatory screen, read-out: IC50 [μM] (confirmatory screen)
[4] = qHTS primary screen of LOPAC/NPACT libraries
[5] = qHTS primary screen of LOPAC/NPACT libraries, read-out: IC50
[6] = qHTS primary screen hits, Table S2
[7] = qHTS primary screen hits, Table S2, several classes where COUNT > 1
[8] = qHTS primary screen hits, Table S2, read-out: IC50

Efficacy (%) (confirmatory screen) ([1]; confirmatory screen): -58% | Confirm? (confirmatory screen) ([1]; confirmatory screen): YES | Curve Class (confirmatory screen) ([1]; confirmatory screen): -2.2 | IC50 [1, 3]: 44.7 µM | Efficacy (%) ([1]; qHTS FP screen hits, Table S2): -54% | IC50 ([1]; qHTS FP screen hits, Table S2, read-out: IC50): 33.5 µM | Efficacy (%) (counterscreen) [2]: -65% | Curve Class (counterscreen) [2]: -2.2 | IC50 [2]: 35.5 µM
SMILES: O=c1[nH]c(=O)c2nc3ccccc3nc2[nH]1 [NCGC00015021-05]

SMILES: COc1ccc2c(c[n+](C)c3c4cc5c(cc4ccc23)OCO5)c1OC.[Cl-] [NCGC00015225-03]
Efficacy (%) (confirmatory screen) ([1]; confirmatory screen): -56% | Confirm? (confirmatory screen) ([1]; confirmatory screen): YES | Curve Class (confirmatory screen) ([1]; confirmatory screen): -1.4 | IC50 [1, 3]: 11.2 µM | Efficacy (%) (counterscreen) [2]: -55% | Curve Class (counterscreen) [2]: -2.2 | IC50 [2]: 28.2 µM

SMILES: C=CC1=C(C)c2cc3[nH]c(cc4nc(cc5[nH]c(cc1n2)c(C)c5CCC(=O)O)C(CCC(=O)O)=C4C)c(C)c3C=C [NCGC00015844-07]
Efficacy (%) (confirmatory screen) ([1]; confirmatory screen): -112% | Confirm? (confirmatory screen) ([1]; confirmatory screen): YES | Curve Class (confirmatory screen) ([1]; confirmatory screen): -1.1 | IC50 [1, 3]: 25.1 µM | Efficacy (%) (counterscreen) [2]: -94% | Curve Class (counterscreen) [2]: -2.2 | IC50 [2]: 25.1 µM

SMILES: O=c1c(O)c(-c2ccc(O)c(O)c2)oc2cc(O)cc(O)c12 [NCGC00015870-16]
Efficacy (%) (confirmatory screen) ([1]; confirmatory screen): -32% | Confirm? (confirmatory screen) ([1]; confirmatory screen): YES | Curve Class (confirmatory screen) ([1]; confirmatory screen): -2.4 | Efficacy (%) (counterscreen) [2]: -31% | Confirm? (counterscreen) [2]: YES | Curve Class (counterscreen) [2]: 4

Efficacy (%) (counterscreen) [2]: -17% | Confirm? (counterscreen) [2]: YES | Curve Class (counterscreen) [2]: 4
SMILES: O=C1c2cccc(O)c2C(=O)c2c(O)cccc21 [NCGC00091367-05]

Efficacy (%) [1, 4]: -25% | Curve Class [1, 4]: -1.4 | IC50 [1, 5]: 3.5 µM
SMILES: Cc1ccc(-c2c(C(=O)CCl)n(CCCO)c3ncnc(N)c23)cc1 [NCGC00485901-01]

Efficacy (%) [1, 4]: -26% | Curve Class [1, 4]: -2.4 | IC50 [1, 5]: 44.7 µM
SMILES: O=C(O)/C=C/c1ccc(-c2ccc(O)c(C34CC5CC(CC(C5)C3)C4)c2)cc1 [NCGC00485908-01]

Efficacy (%) [1, 4]: -27% | Curve Class [1, 4]: -1.4 | IC50 [1, 5]: 4 µM
SMILES: Cc1cc(OCCCS(C)(=O)=O)cc(C)c1-c1cccc(COc2ccc(-c3cc(=O)[nH][s+]3[O-])cc2)c1 (centres unmarked) [NCGC00485952-01]

SMILES: COc1ccc(C2CC(=O)Nc3nc(N4CCCCC4)sc32)c(OC)c1.O=C(O)C(F)(F)F (centres unmarked) [NCGC00488246-02]
Efficacy (%) [1, 6]: -89% | Curve Class [1, 7]: -2.3 | IC50 [1, 8]: 56.2 µM

SMILES: O=C(O)C(F)(F)F.O=C1CC(c2ccc(F)cc2F)c2sc(N3CCOCC3)nc2N1 (centres unmarked) [NCGC00488253-02]
Efficacy (%) [1, 6]: -42% | Curve Class [1, 7]: -2.4 | IC50 [1, 8]: 50.1 µM

SMILES: O=C(O)C(F)(F)F.O=C1CC(c2ccccc2F)c2sc(N3CCOCC3)nc2N1 (centres unmarked) [NCGC00488254-02]
Efficacy (%) [1, 6]: -42% | Curve Class [1, 7]: -2.4 | IC50 [1, 8]: 56.2 µM

SMILES: O=C(O)C(F)(F)F.O=C1CC(c2ccccc2Br)c2sc(N3CCOCC3)nc2N1 (centres unmarked) [NCGC00488255-02]
Efficacy (%) [1, 6]: -54% | Curve Class [1, 7]: -2.4 | IC50 [1, 8]: 79.4 µM

SMILES: COc1ccc(C2CC(=O)Nc3nc(N4CCOCC4)sc32)c(OC)c1.O=C(O)C(F)(F)F (centres unmarked) [NCGC00488259-02]
Efficacy (%) [1, 6]: -59% | Curve Class [1, 7]: -2.4 | IC50 [1, 8]: 56.2 µM

SMILES: O=C(O)C(F)(F)F.O=C1CC(c2ccc(F)cc2Cl)c2sc(N3CCOCC3)nc2N1 (centres unmarked) [NCGC00488260-02]
Efficacy (%) [1, 6]: -41% | Curve Class [1, 7]: -2.4 | IC50 [1, 8]: 50.1 µM

SMILES: O=C(O)C(F)(F)F.O=C1CC(c2c(F)cccc2F)c2sc(N3CCOCC3)nc2N1 (centres unmarked) [NCGC00488261-02]
Efficacy (%) [1, 6]: -47% | Curve Class [1, 7]: -2.4 | IC50 [1, 8]: 56.2 µM

SMILES: CNc1nc2c(s1)C(c1ccc(OC)cc1OC)CC(=O)N2.O=C(O)C(F)(F)F (centres unmarked) [NCGC00488262-02]
Efficacy (%) [1, 6]: -39% | Curve Class [1, 6]: -2.4 | IC50 [1, 8]: 56.2 µM

Efficacy (%) [1, 4]: -27% | Curve Class [1, 4]: -1.4 | IC50 [1, 5]: 5.6 µM
SMILES: COc1cccc(CNC(=O)C2=NC3SC=C(COCc4ccc(C(=O)O)cc4)C3C(=O)N2)c1 (centres unmarked) [NCGC00488702-01]
